Experimental data: patent US11007216B2, “Combination therapy to achieve enhanced antimicrobial activity” (International Business Machines Corporation, priority 2019, dated 2021)

Tested on: A. baumannii
Test: minimum inhibitory concentration (MIC) against A. baumannii
Format: cell-based, Acinetobacter baumannii

Compound | MIC
CC(=O)OC[C@H]1O[C@@H]([S-])[C@H](OC(C)=O)[C@@H](OC(C)=O)[C@@H]1OC(C)=O.CCP(CC)CC.[Au+] [Auranofin, (2,3,4,6-Tetra-O-acetyl-1-thio-β-D-glucopyranosato-κS^1)(triethylphosphoranylidene)gold] | 15.6 µg/mL
Colistin | 1 µg/mL
